Peptide text beside a SMILES is read from it. * marks the point of attachment. Palmitoyl = CCCCCCCCCCCCCCCC(=O)*
Key:
[1] = Zeta potential; type: physicochemical
Protocol: Zeta potential: The PA charge was characterized using a Zetasizer Nano ZS (Malvern). Samples were prepared at 0.5 mM and passed through a 0.2 μm filter (Acrodisc® Syringe Filters with Supor® Membrane, Pall). At least 10 scans were taken per measurement, three measurements per sample at 25° C. and 37° C.

[2] = tested on: J774.2 murine macrophages; experiment: Nitric oxide production of stimulated macrophages; type: cell-based, mouse; details: 24 hours, LPS and stimulated, 32 μM Ac2-26 or epitope equivalent
Protocol: Macrophage culture and characterization: J774.2 murine macrophages (Sigma-Aldrich) were expanded at 4-9×10^5 cells/mL in growth media consisting of Dulbecco's Modified Eagle's Medium (Sigma-Aldrich) containing 4.5 g/L glucose, 2 mM L-glutamine, 10% v/v FBS, 100 U/m penicillin, and 100 μg/mL streptomycin. Cells were passaged using Accutase™ (StemCell Technologies) and used at passage 6-9 for all experiments. The cells were detached with Accutase™ and gentle scraping, counted, and re-suspended in flow cytometry buffer containing 2% w/v bovine serum albumin (BSA, heat shock fraction free of proteases, globulin, and fatty acids, Sigma-Aldrich) and 0.1% w/v sodium azide (Sigma-Aldrich). To minimize non-specific binding of immunoglobin to Fc receptors, macrophages were incubated with anti-mouse CD16/32 antibody (TrueStain FcX™, Biolegend) at 1 μg/1×10^5 cells for 10 minutes at 4° C. APC anti-mouse CD11b antibody or APC Armenian hamster IgG isotype control antibody (Biolegend) were added at 0.4 μg/1×10^5 cells, FPR2 antibody (Novus Biologics) was added at […], and all samples were incubated for 30 minutes at 4° C. The cells were washed once with flow cytometry buffer by centrifugation at 300×g. FPR2 samples were further treated with goat anti-rabbit Alexa Fluor 488 secondary antibody (Invitrogen) at 2 μg/1×10^5 cells for 20 minutes at 4° C., followed by a wash step. Unstained macrophages served as controls and contained 7AAD viability staining solution (Biolegend) at 0.1 μg/1×10^5. All samples were suspended in 4% paraformaldehyde (Electron Microscopy Sciences) in PBS until analysis. […] All samples were analyzed using Attune NxT Acoustic Focusing Cytometer (Thermo Fisher) with at least 2000 events counted per condition.
Therapeutic effects of ApoA1-Ac2-26 PAs: 10% ROS- and MMP-Ac2-26 PAs, as well as Ac2-26 peptide were added together with 10 μg/mL LPS at 32 μM Ac2-26 to macrophages. […] Concerning the quantification of NO, the reducing solution made of KI in acetic acid and water provides an excess of I− that reacts with nitrite yielding ·NO. […]

[3] = Small angle x-ray scattering (SAXS) of PA nanofibers; type: physicochemical
Protocol: Small angle x-ray scattering (SAXS): SAXS characterization of the PA nanofibers was performed at the Advanced Photon Source in the Argonne National Laboratory on beamline 5-ID-D, DuPont-Northwestern-Dow Collaborative Access Team Synchrotron Research Center. Samples were prepared at 5 mM in PBS solution, aged at least 24 hours at 4° C., and analyzed in 1.5 mm quartz capillaries (Charles Supper) at 17 keV with a charged couple device photon detector located 245 cm behind the sample. Scattering intensities were collected using wave vector q range of 0.0024 to 0.40 Å^−1. q represents the scattering vector and is calculated as q=4π sin (θ)/λ, with θ as the scattering angle between the incident beam and detector and […] the X-ray wavelength. The plots of scattering intensity versus q were obtained using NIST software Igor Pro v8. The scattering intensities of PBS were subtracted from the PA samples using the Irena SAS macro, and the resulting plots were fitted using NCNR Analysis macro to a polydisperse core shell cylinder model.

[4] = TEM characterization of PA nanofibers for diameter and length (Example 3); type: physicochemical; details: 30 measurements from three images
Protocol: Samples at 1 mM in PBS were prepared for TEM by plating on copper supports covered with thin carbon foil 400-mesh that were treated with glow discharge. […] Due to the overlapping fibers, automated tools including FiberApp could not be used to analyze the nanofibers. Instead, the TEM images were analyzed manually for nanofiber diameter and length using ImageJ software. Cryogenic TEM of samples was also performed using a JEOL 1230 at 100 kV accelerating voltage and Gatan 831 CCD camera. […] Samples were prepared at 1 mM in PBS blotted once for 3 seconds before plunging into liquid ethane using a Vitrobot Mark III (FEI) vitrification robot.

Compound | overall charge (zeta potential) ([1]; 25° C.) [mV] | overall charge (zeta potential) ([1]; 37° C.) | macrophage activation, nitric oxide production relative to the stimulated control [2] | SAXS slope of Guinier regime in the low q region ([3]; 5 mM in PBS) | core radius (polydisperse core-shell cylinder model) ([3]; SAXS fit) [nm] | radial shell thickness (polydisperse core-shell cylinder model) ([3]; SAXS fit) [nm] | Diameter (nm) Average [4] [nm] | Diameter (nm) Median [4] [nm] | Length (nm) Average [4] [nm] | Length (nm) Median [4] [nm] | Diameter (nm) Average ([4]; listed as ApoA1) [nm] | Length (nm) Median ([4]; listed as ApoA1) [nm]
10% MMP-Ac2-26 PA: co-assembly of 10 mol % MMP-Ac2-26 PA, 50 mol % E2 filler PA, and 40% ApoA1 PA (VVAAEEGGGPQGIWGQGKAMVSEFLKQAWFIENEEQEYVQTVK) | −18.1±0.5 | maintained | significantly reduced | −1.8 | 2.1 | 2.0 | – | – | – | – | – | –
CCCCCCCCCCCCCCCC(=O)N[C@H](C(=O)N[C@H](C(=O)N[C@@H](C)C(=O)N[C@@H](C)C(=O)N[C@@H](CCC(=O)O)C(=O)N[C@@H](CCC(=O)O)C(=O)NCC(=O)N[C@@H](CC(=O)O)C(=O)N[C@@H](Cc1c[nH]c2ccccc12)C(=O)N[C@@H](Cc1ccccc1)C(=O)N[C@@H](CCCCN)C(=O)N[C@@H](C)C(=O)N[C@@H](Cc1ccccc1)C(=O)N[C@@H](Cc1ccc(O)cc1)C(=O)N[C@@H](CC(=O)O)C(=O)N[C@@H](CCCCN)C(=O)N[C@H](C(=O)N[C@@H](C)C(=O)N[C@@H](CCC(=O)O)C(=O)N[C@@H](CCCCN)C(=O)N[C@@H](Cc1ccccc1)C(=O)N[C@@H](CCCCN)C(=O)N[C@@H](CCC(=O)O)C(=O)N[C@@H](C)C(=O)N[C@@H](Cc1ccccc1)C(N)=O)C(C)C)C(C)C)C(C)C [ApoA1 PA] (Palmitoyl-VVAAEEGDWFKAFYDKVAEKFKEAF-NH2) | – | – | did not cause significant decreases in nitric oxide production | – | – | – | 9.6 | 9.5 | 626.9 | 615.9 | 9.6±1.7 | 616

From patent US12214076B2, “Drug delivery vehicles for atherosclerosis nanomedicine” (Northwestern University, priority 2019, dated 2025)
